This note sets out measurements from publication PMC12430364, “Characterization of Human Recombinant β1,4-GalNAc-Transferase B4GALNT1 and Inhibition by Selected Compounds” (Molecules, 2025).

What all share (format): biochemical
The target in assay [1] is T1, β1,4-N-acetylgalactosaminyltransferase 1 (B4GALNT1, GM2 synthase) (Homo sapiens, UniProt Q00973).
T1 construct: soluble His8-tagged, amino acids 1–25 deleted
T1 sequence (Q00973 26-533): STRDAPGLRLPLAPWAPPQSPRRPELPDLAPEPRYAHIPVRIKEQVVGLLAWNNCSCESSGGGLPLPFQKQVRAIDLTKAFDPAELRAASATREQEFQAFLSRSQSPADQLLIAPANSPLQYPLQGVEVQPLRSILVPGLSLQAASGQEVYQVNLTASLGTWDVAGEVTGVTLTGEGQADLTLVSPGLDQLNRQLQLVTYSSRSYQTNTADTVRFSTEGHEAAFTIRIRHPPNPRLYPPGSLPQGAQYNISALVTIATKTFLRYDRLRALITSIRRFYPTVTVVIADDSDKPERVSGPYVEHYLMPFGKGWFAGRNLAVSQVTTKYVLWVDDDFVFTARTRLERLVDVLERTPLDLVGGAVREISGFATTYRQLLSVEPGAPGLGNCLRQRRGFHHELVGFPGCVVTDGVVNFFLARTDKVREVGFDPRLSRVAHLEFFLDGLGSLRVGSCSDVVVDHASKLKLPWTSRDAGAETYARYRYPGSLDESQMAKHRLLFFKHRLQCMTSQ
The assay is described as follows: radiolabeled UDP-[3H]GalNAc transfer to GM3, purified enzyme; […] inhibition at […] and IC50.

Assay [2] has as its target T1, β1,4-N-acetylgalactosaminyltransferase 1 (B4GALNT1, GM2 synthase). The assay is described as follows: % inhibition at […], radiolabeled GalNAc transfer assay, purified enzyme.
The target is the same in assay [3]. The assay is described as follows: radiolabeled GalNAc transfer assay, purified enzyme, apparent KM.

As a reminder, the IC50 is the concentration at which inhibition is half-maximal. High values mean a need for much substance, low ones inhibition by little substance. On to `CCCCCCCCCCC[n+]1ccn(CCCCCCn2cc[n+](CCCCCCCCCCC)c2)c1` [QT163], for which the IC50 in assay [1] is 200 µM.

Usually inhibition stands for the relative decrease from the control value, in per cent. A high value points to a strong effect. As for `CCCC(=O)N[C@@H]1[C@@H](O)[C@H](O)[C@@H](CO)O[C@H]1Sc1ccc2ccccc2c1` [compound 612, 2-naphthyl 2-butanamido-2-deoxy-1-thio-β-D-glucopyranoside], the inhibition at 1000 µM in assay [2] stood at 44%.

As a reminder, the Km is the concentration of substrate that gives half-maximal velocity. For GM3, the Km in assay [3] was determined as 500 µM.
